From patent US8980954B2, “Substituted cis- and trans-stilbenes as therapeutic agents” (STC.UNM, priority 2006, dated 2015)

How the values were obtained:
[1] = test system: NF-κB; experiment: Inhibition of the TNFα-induced activation of NF-κB, 293T/NF-κB-luc luciferase reporter cell assay; assay type: cell-based, human; conditions: 7 hours; for IC50: Homo sapiens, HEK-293T, 293T/NF-κB-luc cells, TNFα 20 ng/ml, triplicate, read-out: IC50 for inhibition of the TNFα-induced activation of NFκB; for activity as inhibitor of the TNFα-induced activation of NF-κB in the preliminary screen: screened at 15 μM, FIGS. 1-5
Protocol: The cells were maintained in Dulbecco's Modified Eagle's Medium (DMEM—high glucose containing 4 mM glutamine) supplemented with 10% fetal bovine serum (FBS), 1 mM sodium pyruvate, 100 units/ml penicillin, 100 μg/ml streptomycin and 100 μg/ml hygromycin (Gibco/Invitrogen, Carlsbad, Calif.) to maintain cell selection. […] The following day cells were fed fresh media 1 hour prior to treatment. […] Plate wells were gently washed with phosphate buffered saline, pH 7.4, and lysed with 1x passive lysis buffer (Promega, Madison, Wis.). The subsequent lysates were analyzed with the Luciferase Assay System (Promega) utilizing a TD-20/20 luminometer (Turner Designs, Sunnyvale, Calif.). The firefly luciferase relative light units were normalized to protein (mg/ml) with BCA™ Protein Assay Kit (Pierce, Rockford, Ill.) and standardized to percent of control (TNFα control).

[2] = test system: NF-κB; conditions: cited from earlier work
[3] = test system: AP-1; experiment: Inhibition of the TPA-induced activation of AP-1, 293T/AP-1-luc luciferase reporter cell assay; assay type: cell-based, human; conditions: 293T/AP-1-luc cells, TPA 10 ng/ml, 24 hours; for IC50: Homo sapiens
Protocol: An AP-1 reporter stable cell line derived from human 293T embryonic kidney cells transfected with a luciferase reporter construct containing three AP-1 binding sites in the promoter (293T/AP-1-luc, Panomics, Inc., Redwood City, Calif.) was grown in a humidified atmosphere at 37° C. in 5% CO2/95% air. The cells were maintained in Dulbecco's Modified Eagle's Medium (DMEM—high glucose containing 4 mM glutamine) supplemented with 10% fetal bovine serum (FBS), 1 mM sodium pyruvate, 100 units/ml penicillin, 100 μg/ml streptomycin and 100 μg/ml hygromycin (Gibco/Invitrogen, Carlsbad, Calif.) to maintain cell selection. One day prior to treatment, the 293T/AP-1-luc cells were plated into 24-well cell culture plates (Costar, Cambridge, Ma.) in the above media without hygromycin. The following day, the cells, which were at approximately 60% confluency, were fed fresh media with or without TPA, 10 ng/ml, (Calbiochem) and immediately treated with curcumin or analog prepared in DMSO stock solutions. The cells were placed again in a humidified atmosphere at 37° C. in 5% CO2/95% air for 24 hours. Plate wells were gently washed with phosphate buffered saline, pH 7.4, and lysed with 1x passive lysis buffer (Promega, Madison, Wis.). The subsequent lysates were analyzed with the Luciferase Assay System (Promega) utilizing a TD-20/20 luminometer (Turner Designs, Sunnyvale, Calif.). The firefly luciferase relative light units were normalized to protein (mg/ml) with BCA™ Protein Assay Kit (Pierce, Rockford, Ill.) and standardized to percent of control (TPA control).

[4] = TRAP assay (total radical-trapping anti-oxidant parameter)
Source text: (§1) The total radical-trapping anti-oxidant parameter assay (TRAP assay) measures the ability of an analog to react with the pre-formed radical monocation of 2,2′-azinobis-(3-ethylbenzothiazoline-6-sulfonic acid) (ABTS-^+). The ferric reducing/anti-oxidant power assay (FRAP assay) measures the ability of an analog to reduce a ferric tripyridyltriazine complex.
(§2) In both colorimetric assays, the vitamin E analog Trolox was used as a control.
(§3) The anti-oxidant activities of certain stilbene analogs according to the present invention were determined using two standard assays. See, Schlesier, et al., Free Rad Res. 2002;36:177-187. The total radical-trapping anti-oxidant parameter assay (TRAP assay) measures the ability of an analog to react with the pre-formed radical monocation of 2,2′-azinobis-(3-ethylbenzothiazoline-6-sulfonic acid) (ABTS^+). See, Re, et al., Free Rad Biol Med, 26:1231-1237 (1999). ABTS was reacted with potassium persulfate in the dark, overnight, to generate the colored ABTS^+ radical cation, which has an absorption maximum at 734 nm. The activities of curcumin and analogs were determined by their abilities to quench the color of the radical cation. The ferric reducing/anti-oxidant power assay (FRAP assay) measures the ability of an analog to reduce a ferric tripyridyltriazine complex. See, Benzie and Strain, Meth Enzymol, 299:15-27 (1999). The ferric complex of 2,4,6-tripyridyl-s-triazine was prepared at acidic pH, and the anti-oxidant activities of curcumin and analogs were determined by their abilities to reduce the ferric complex to the ferrous complex, monitored by formation of the ferrous complex at 593 nm. In both colorimetric assays, the vitamin E analog Trolox was used as a control.

[5] = test system: COX-2 mRNA; experiment: Inhibition of LPS-induced expression of COX-2 mRNA in BV-2 microglial cells (qRT-PCR); assay type: cell-based, mouse; conditions: BV-2 cells, LPS 0.2 μg/ml, 24 hours; for inhibition of LPS-induced COX-2 mRNA compared with resveratrol: 0.15 μM
[6] = FRAP assay (ferric reducing/anti-oxidant power)
Source text: as §1, §2
as §3, with “ABTS was reacted with potassium persulfate in the dark, overnight, to generate the colored ABTS^+ radical cation, which has an absorption maximum at 734 nm.” left out, “The ferric reducing/anti-oxidant power assay (FRAP assay) measures the ability of an analog to reduce a ferric tripyridyltriazine complex. See, Benzie and Strain, Meth Enzymol, 299:15-27 (1999).” left out, “In both colorimetric assays, the vitamin E analog Trolox was used as a control.” left out

| IC50 [1] [nM] | IC50 [3] [nM] | SMILES | activity as inhibitor of the TNFα-induced activation of NF-κB in the preliminary screen [1] | further results |
| --- | --- | --- | --- | --- |
| 1500 ± 30 |  | COc1ccc(/C=C/c2ccccc2Cl)cc1 [6j, (E)-2-Chloro-4′-methoxystilbene] |  |  |
|  | 500 ± 100 | COc1ccc(/C=C/c2cccc(F)c2)cc1 [6n, (E)-3-Fluoro-4′-methoxystilbene] |  |  |
|  | 800 ± 100 | CCOc1ccc(/C=C/c2ccccc2)cc1 [4k, (E)-4-Ethoxystilbene] |  |  |
|  | 2400 ± 700 | COc1ccc(/C=C/c2cccc(OC)c2OC)cc1 [6o, (E)-2,3,4′-Trimethoxystilbene] | especially active |  |
| 900 ± 100 | 800 ± 30 | COc1ccc(/C=C/c2ccc(C)cc2)cc1 [6d, (E)-4′-Methoxy-4-methylstilbene] |  |  |
| 600 ± 400 |  | COc1ccc(/C=C/c2ccc(O)c(O)c2)cc1 [6x, (E)-3,4-Dihydroxy-4′-methoxystilbene] | considerably more active than resveratrol |  |
|  | 1300 ± 30 | COc1ccc(/C=C/c2ccccc2)cc1 [4b, (E)-4-Methoxystilbene] | especially active |  |
|  | 1600 ± 600 | Cc1ccc(/C=C/c2ccccc2)cc1 [4d, (E)-4-Methylstilbene] |  |  |
| 150 | 800 ± 100 | COc1ccc(/C=C/c2ccccc2F)cc1 [6p, (E)-2-Fluoro-4′-methoxystilbene] |  | anti-oxidant activity (TRAP or FRAP assay, not told apart) [4]: does not exhibit anti-oxidant activity; inhibition of LPS-induced COX-2 mRNA compared with resveratrol [5]: almost as effective as 4 μM resveratrol |
| 600 ± 100 | 700 ± 40 | COc1ccc(/C=C/c2cccc(OC)c2)cc1 [6r, (E)-3,4′-Dimethoxystilbene] | especially active |  |
| 1000 ± 100 | 800 ± 150 | COc1ccc(/C=C/c2cccc(Cl)c2)cc1 [6h, (E)-3-Chloro-4′-methoxystilbene] |  |  |
|  | 2100 ± 400 | COc1ccc(/C=C/c2ccccn2)cc1 |  |  |
| 800 ± 200 | 1000 ± 120 | COc1ccc(/C=C/c2cccc(C)c2)cc1 [6i, (E)-4′-Methoxy-3-methylstilbene] |  |  |

The next lines start with the compound.

| SMILES | IC50 [1] [nM] | IC50 [3] [nM] | activity as inhibitor of the TNFα-induced activation of NF-κB in the preliminary screen [1] | further results |
| --- | --- | --- | --- | --- |
| C(=Cc1ccccc1)c1ccccc1 [stilbene] |  |  |  | inhibition of TNF-induced activation of NF-κB (literature) [2]: inactive |
| COc1ccc(/C=C/c2cc(OC)cc(OC)c2)cc1 [6f, (E)-3,4′,5-Trimethoxystilbene] |  | 3800 ± 1100 | especially active |  |
| COc1cccc(/C=C/c2ccccc2)c1OC [4o, (E)-2,3-Dimethoxystilbene] |  |  | retained very little activity |  |
| CN(C)c1ccc(/C=C/c2ccccc2)cc1 [4cc, (E)-4-N,N-Dimethylaminostilbene] | 150 | 1100 ± 100 |  | anti-oxidant activity in the TRAP assay [4]: exhibits anti-oxidant activity; anti-oxidant activity (TRAP or FRAP assay, not told apart) [4]: retained anti-oxidant activity; anti-oxidant activity in the FRAP assay [6]: exhibits anti-oxidant activity; inhibition of LPS-induced COX-2 mRNA compared with resveratrol [5]: almost as effective as 4 μM resveratrol |
| COc1ccc(/C=C/c2ccccc2)c(OC)c1 [4u, (E)-2,4-Dimethoxystilbene] |  |  | especially active |  |
| COc1ccc(/C=C/c2ccccc2)cc1O [4s, (E)-3-Hydroxy-4-methoxystilbene] |  |  | considerably more active than resveratrol |  |
| COc1ccc(/C=C/c2ccc(OC)cc2)cc1 [6b, (E)-4,4′-Dimethoxystilbene] |  |  | retained very little activity |  |
| COc1ccc(/C=C/c2cccc(O)c2O)cc1 [6cc, (E)-2,3-Dihydroxy-4′-methoxystilbene] |  |  | considerably more active than resveratrol |  |
| Oc1ccc(/C=C/c2cc(O)cc(O)c2)cc1 [resveratrol, 3,4′,5-trihydroxystilbene, reference compound] | 20000 ± 3000 |  |  | inhibition of LPS-induced COX-2 mRNA ([5]; 4 μM): about 50%; suppression of LPS-induced COX-2 mRNA ([5]; 20 μM): markedly suppressed; effect on TPA-induced AP-1 activation [3]: activated; inhibition of TNF-induced activation of NF-κB (literature) [2]: inhibits TNF-induced activation of NF-κB |
